Measurements published in patent US20060270640A1, “Method of preventing, medicating, and/or treating hypocalcemia of domestic mammal” (Mercian Corporation, priority 2004, published 2006).
Values joined by “and” are separate entries in the source; they are usually repeats but may differ in a detail not shown here. Identical values can stand only once. Like-named read-outs stand apart in the source and are kept apart here.

Key:
[1] = Dose-response test of 1,25-(OH)2D3, intravaginal vs intravenous: 1,25-(OH)2D3 in plasma and bioavailability (Example 3); assay type: in vivo, cow; settings: for concentration at 0 h: read-out: 1,25-(OH)2D3 level in plasma
Description: (§1) Hereinafter, the present invention will further be described with reference to Examples and Comparative Example. However, the present invention is not intended to be limited to them by any means. In the examples described below, a 1,25-(OH)2D3 concentration in plasma was determined using a radioimmunoassay kit (1,25-(OH)2D RIA kit, Immunodiagnostic Systems Limited, UK). The Ca concentrations, inorganic phosphorus (iP) concentrations, and magnesium (Mg) concentrations in plasma and urine were determined by orthocresolphthalein complexone (O-CPC), molybdenum (Mo), and xylidyl blue methods, respectively. A creatinine concentration in urine was determined by a Jaffe method. Calcium (Ca), inorganic phosphorus (iP), and magnesium (Mg) concentrations in urine were indicated in the ratios relative to creatinine (Cre) (Ca/Cre, iP/Cre, and Mg/Cre, respectively).
(§2) The dose-response test of 1,25-(OH)2D3 by an intravaginal administration route was performed with five 3 to 9-year-old ovariectomized Holstein cows having body weights of 616 to 804 kg as test animals.
(§3) The cows were hitched to a partition after and provided with 5.3 kg of timothy hay, 0.18 kg of alfalfa hay, 0.71 kg of beet pulp pellet, and 1.7 kg of commercially-available grain mix on a daily basis. The cows were measured on a DM basis and freely provided with water. A daily mineral intake was set to 48.4 g for calcium, 20.2 g of inorganic phosphorus, and 12.7 g for magnesium, which sufficiently exceeded the NRC recommendation.
(§4) To the five cows, 1,25-(OH)2D3 was respectively administered at 0.125, 0.25, 0.5, and 1.0 μg/kg (by body weight) as an intravaginal dose level and 1.0 μg/kg (by body weight) as an intravenous injection dose level at an interval of 2 weeks or more according to a 5×5 Latin square design.
(§5) The 1,25-(OH)2D3 (manufactured by Mercian Corporation) used was in the form of crystalline powder, which was dissolved in 99% ethanol at 200 μg/mL and cryopreserved at −20° C. until use.
(§6) A drug composed of 5 mL of 20% ethanol solution containing 1,25-(OH)2D3 at 0.125, 0.25, 0.5, or 1.0 μg/kg (by body weight) was administered to a vaginal lumen using a Split Universal Sheath (IMV Int. CO., France) by a rectovaginal cavity method. The vulva was then bonded with an adhesive in order to prevent the 1,25-(OH)2D3 solution from being unintentionally excreted from the vaginal lumen. Intravenous administration was performed using a cannula (14-ga cannula for animals, manufactured by Nipro Medical Industries Ltd.) mounted in advance for the collection of a blood sample.
(§7) A heparinized blood sample was collected through the cannula immediately before the administration of 1,25-(OH)2D3 (0 hour) and at 2, 4, 6, 12, 24, 48, 72, 96, and 120 hours after administration.
(§8) Next, the blood was immediately centrifuged, and 1,25-(OH)2D3, calcium, inorganic phosphorus, and magnesium concentrations in plasma were determined.
It is noted that the bioavailability was determined by comparing an area under the plasma concentration-time curve (AUC) between the cow to which 1,25-(OH)2D3 was intravaginally administered at 1.0 μg/kg (by body weight) and the cow to which the same amount of 1,25-(OH)2D3 was intravenously administered, and a AUC ratio between intravaginal administration and intravenous administration was indicated by percentage.

[2] = Dose-response test of 1,25-(OH)2D3, intravaginal vs intravenous: calcium, inorganic phosphorus, magnesium in plasma (Example 3); assay type: in vivo, cow
Description: as §1, §2, §3, §4, §5, §6, §7, §8

[3] = Dose-response test of 1,25-(OH)2D3: Ca/Cre, iP/Cre, Mg/Cre in urine (Example 3); assay type: in vivo, cow; settings: for iP/Cre in urine: vs immediately before administration
Description: as §1, §2, §3, §4, §5, §6
Urine were collected by urethral catheterization simultaneously with the collection of blood samples from the cows that underwent the intravaginal administration of 1,25-(OH)2D3 at 0.125 and 1.0 μg/kg (by body weight) and the intravenous injection of 1,25-(OH)2D3at 1.0 μg/kg (by body weight), to determine creatinine, calcium, inorganic phosphorus, and magnesium concentrations in the urine. Plasma and urine samples were cryopreserved at −20° C. until analysis.

[4] = oral administration, high dose; cited from earlier work
[5] = intravenous, four dose levels (30, 90, 270, and 600 μg); increase not directly related to dose; cited from earlier work
[6] = in vivo; cited from earlier work
[7] = intravaginal, four doses 0.125-1.0 μg/kg
[8] = 0 hour, intravaginal 0.125 μg/kg
[9] = 0 hour, intravaginal 0.25 μg/kg
[10] = 24 hours after intravaginal 0.125 μg/kg
[11] = 24 hours after intravaginal 1.0 μg/kg

C=C1/C(=C\C=C2/CCC[C@]3(C)[C@@H]([C@H](C)CCCC(C)(C)O)CC[C@@H]23)C[C@@H](O)C[C@@H]1O [1,25-(OH)2D3, 1,25-dihydroxyvitamin D3]
1,25-(OH)2D3 level in plasma, peak ([1]; 2 hours after intravaginal 0.125 μg/kg): 2219.3 ± 812.0 pg/mL
1,25-(OH)2D3 level in plasma, peak ([1]; 2 hours after intravaginal 0.25 μg/kg): 3448.7 ± 737.9 pg/mL
1,25-(OH)2D3 level in plasma, peak ([1]; 2 hours after intravaginal 0.5 μg/kg): 6388.5 ± 1127.4 pg/mL
1,25-(OH)2D3 level in plasma, peak ([1]; 2 hours after intravaginal 1.0 μg/kg): 12315.7 ± 2288.3 pg/mL
bioavailability ([1]; female, Holstein, bovine, plasma, other: intravaginal, 1 μg/kg, intravaginal vs intravenous, ovariectomized cows, read-out: bioavailability, share of 1,25-(OH)2D3 administered to the vaginal lumen entering the circulatory system): ~93%
concentration at 0 h ([1]; female, Holstein, bovine, plasma, other: intravaginal, intravaginal 0.125 μg/kg, ovariectomized cows): 7.4 ± 5.3 pg/mL
concentration at 0 h ([1]; female, Holstein, bovine, plasma, other: intravaginal, intravaginal 0.25 μg/kg): 6.5 ± 1.3 pg/mL
concentration at 0 h ([1]; female, Holstein, bovine, plasma, other: intravaginal, intravaginal 0.5 μg/kg): 8.7 ± 5.6 pg/mL
concentration at 0 h ([1]; female, Holstein, bovine, plasma, other: intravaginal, intravaginal 1.0 μg/kg): 6.6 ± 1.6 pg/mL
individual bioavailability (AUC ratio intravaginal/intravenous) ([1]; intravaginal 1.0 μg/kg vs intravenous 1.0 μg/kg, one value per each of the five cows): 71.1% and 124.2% and 113.3% and 90.0% and 66.5%
time of peak 1,25-(OH)2D3 level in plasma after administration ([1]; intravaginal 0.125, 0.25, 0.5 and 1.0 μg/kg): 2 h
dose dependence of absorption from the vaginal wall [1, 7]: absorbed from the vaginal wall proportionately with a dose
calcium concentration in plasma [2, 8]: 8.9 ± 0.5 mg/dL
inorganic phosphorus concentration in plasma [2, 8]: 5.3 ± 1.0 mg/dL
magnesium concentration in plasma [2, 8]: 2.2 ± 0.2 mg/dL
calcium concentration in plasma [2, 9]: 8.9 ± 0.4 mg/dL
inorganic phosphorus level in plasma [2, 9]: 4.7 ± 0.6 mg/dL
magnesium concentration in plasma [2, 9]: 2.0 ± 0.2 mg/dL
calcium concentration in plasma ([2]; 0 hour, intravaginal 0.5 μg/kg): 8.9 ± 0.2 mg/dL
inorganic phosphorus concentration in plasma ([2]; 0 hour, intravaginal 0.5 μg/kg): 5.3 ± 0.6 mg/dL
magnesium concentration in plasma ([2]; 0 hour, intravaginal 0.5 μg/kg): 2.2 ± 0.2 mg/dL
calcium concentration in plasma ([2]; 0 hour, intravaginal 1.0 μg/kg): 8.8 ± 0.7 mg/dL
inorganic phosphorus concentration in plasma ([2]; 0 hour, intravaginal 1.0 μg/kg): 5.4 ± 1.3 mg/dL
magnesium concentration in plasma ([2]; 0 hour, intravaginal 1.0 μg/kg): 2.1 ± 0.1 mg/dL
calcium concentration in plasma ([2]; 0 hour, intravenous 1.0 μg/kg): 8.8 ± 0.5 mg/dL
inorganic phosphorus concentration in plasma ([2]; 0 hour, intravenous 1.0 μg/kg): 5.2 ± 1.3 mg/dL
magnesium concentration in plasma ([2]; 0 hour, intravenous 1.0 μg/kg): 2.2 ± 0.2 mg/dL
inorganic phosphorus concentration in plasma ([2]; 12 hour after intravenous 1.0 μg/kg): 7.2 ± 0.8 mg/dL
inorganic phosphorus level in plasma ([2]; 12 hours (start of 12 to 120 hours) after intravaginal 0.25 μg/kg): 6.7 ± 0.9 mg/dL
magnesium concentration in plasma ([2]; 12 hours after intravaginal 0.5 μg/kg): 1.9 ± 0.2 mg/dL
inorganic phosphorus concentration in plasma [2, 10]: 7.7 ± 0.8 mg/dL
magnesium concentration in plasma [2, 10]: 1.9 ± 0.1 mg/dL
magnesium concentration in plasma ([2]; 24 hours after intravaginal 0.25 μg/kg): 1.8 ± 0.1 mg/dL
inorganic phosphorus concentration in plasma ([2]; 24 hours after intravaginal 0.5 μg/kg): 7.9 ± 0.9 mg/dL
inorganic phosphorus concentration in plasma [2, 11]: 8.0 ± 1.2 mg/dL
magnesium concentration in plasma [2, 11]: 1.8 ± 0.2 mg/dL
magnesium concentration in plasma ([2]; 24 hours after intravenous 1.0 μg/kg): 1.9 ± 0.3 mg/dL
inorganic phosphorus concentration in plasma, peak ([2]; 24 hours after intravenous 1.0 μg/kg (start of peak period)): 9.1 ± 1.6 mg/dL
calcium concentration in plasma, peak ([2]; 48 hours after intravaginal 0.125 μg/kg, significantly high 12 to 120 hours): 11.1 ± 0.9 mg/dL
calcium concentration in plasma, peak ([2]; 48 hours after intravaginal 0.25 μg/kg, significantly high 12 to 120 hours): 11.2 ± 0.7 mg/dL
calcium concentration in plasma, peak ([2]; 48 hours after intravaginal 0.5 μg/kg, significantly high 6 to 120 hours): 11.5 ± 0.6 mg/dL
calcium concentration in plasma, peak ([2]; 48 hours after intravaginal 1.0 μg/kg, significantly high 6 to 120 hours): 12.0 ± 0.6 mg/dL
inorganic phosphorus level in plasma ([2]; 120 hours (end of 12 to 120 hours) after intravaginal 0.25 μg/kg): 8.6 ± 1.2 mg/dL
magnesium concentration in plasma ([2]; 120 hours after intravaginal 0.125 μg/kg): 1.8 ± 0.3 mg/dL
magnesium concentration in plasma ([2]; 120 hours after intravaginal 0.25 μg/kg): 1.7 ± 0.2 mg/dL
magnesium concentration in plasma ([2]; 120 hours after intravaginal 0.5 μg/kg): 1.7 ± 0.2 mg/dL
magnesium concentration in plasma ([2]; 120 hours after intravaginal 1.0 μg/kg): 1.7 ± 0.4 mg/dL
magnesium concentration in plasma ([2]; 120 hours after intravenous 1.0 μg/kg): 1.7 ± 0.2 mg/dL
inorganic phosphorus concentration in plasma, peak ([2]; end of peak period 'from 24 hours to 12 hours' after intravenous 1.0 μg/kg): 9.0 ± 1.2 mg/dL
dose-relationship of changes in calcium, inorganic phosphorus and magnesium concentrations in plasma [2, 7]: no dose-relationship
calcium concentration in plasma, peak ([2]; intravenous 1.0 μg/kg): 11.5 ± 1.2 mg/dL
Ca/Cre, iP/Cre and Mg/Cre in urine ([3]; intravaginal 0.125 μg/kg): no influence
Ca/Cre in urine ([3]; via the vagina 1.0 μg/kg, at 24 hours after administration): significantly rose
Mg/Cre in urine ([3]; via the vagina 1.0 μg/kg, from 6 hours to 12 hours after administration): significantly high
iP/Cre in urine ([3]; via the vagina 1.0 μg/kg, from 48 hours to 120 hours): significantly high
Mg/Cre in urine ([3]; via the vein 1.0 μg/kg, at 6 hours after administration): significantly high
Ca/Cre in urine ([3]; via the vein 1.0 μg/kg, at 12 hours and 24 hours after administration): significantly rose
iP/Cre in urine ([3]; via the vein 1.0 μg/kg, from 72 hours to 120 hours): significantly high
proportional rise in the AUC in serum with an increase in a dose [4]: not observed
excretion of calcium into urine [5]: increases
bioavailability of 1,25-(OH)2D3 [6]: 62% and 67%
